Data reported in patent US4902709A, “Novel antihypercholesterolemic compounds” (Merck & Co., Inc., priority 1988, dated 1990).

molecular target: T1, HMG-CoA reductase (Rattus norvegicus, UniProt P51639); experiment: intrinsic HMG-CoA reductase inhibition (in vitro procedure detailed in U.S. Pat. No. 4,668,699); type: biochemical; conditions: 2,4 dichloro derivatives of formula I
T1 sequence (P51639 1-887): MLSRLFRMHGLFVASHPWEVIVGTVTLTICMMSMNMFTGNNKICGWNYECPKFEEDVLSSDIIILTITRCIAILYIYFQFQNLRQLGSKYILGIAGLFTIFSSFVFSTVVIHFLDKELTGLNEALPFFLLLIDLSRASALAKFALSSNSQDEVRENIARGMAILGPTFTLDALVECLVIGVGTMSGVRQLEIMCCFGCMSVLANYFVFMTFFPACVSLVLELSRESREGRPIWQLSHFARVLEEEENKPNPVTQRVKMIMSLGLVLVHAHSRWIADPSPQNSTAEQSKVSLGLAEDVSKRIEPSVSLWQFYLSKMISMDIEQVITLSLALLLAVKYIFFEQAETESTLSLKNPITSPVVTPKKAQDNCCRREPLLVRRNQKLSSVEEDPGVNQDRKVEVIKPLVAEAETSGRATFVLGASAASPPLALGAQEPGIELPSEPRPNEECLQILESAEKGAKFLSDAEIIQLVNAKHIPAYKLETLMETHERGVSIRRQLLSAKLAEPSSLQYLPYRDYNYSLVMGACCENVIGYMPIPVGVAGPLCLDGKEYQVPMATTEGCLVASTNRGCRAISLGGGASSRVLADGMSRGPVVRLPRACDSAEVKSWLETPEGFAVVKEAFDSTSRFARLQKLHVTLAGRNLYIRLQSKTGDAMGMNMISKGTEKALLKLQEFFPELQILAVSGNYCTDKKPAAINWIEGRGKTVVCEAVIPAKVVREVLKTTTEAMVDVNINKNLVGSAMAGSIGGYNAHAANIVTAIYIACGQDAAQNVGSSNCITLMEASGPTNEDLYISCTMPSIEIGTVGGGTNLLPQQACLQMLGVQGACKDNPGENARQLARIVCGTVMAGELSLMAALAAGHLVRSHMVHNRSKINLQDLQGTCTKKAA

Point of comparison: O=C1C[C@@H](c2ccccc2)C[C@H](CCc2ccc(Cl)cc2Cl)O1 (relative stereo) [Example 1, trans-6-[2-(2,4-dichlorophenyl)ethyl]-3,4,5,6-tetrahydro-4-phenyl-2H-pyran-2-one], IC50 21 µM. Against it:
- O=C1C[C@H](c2ccc(-c3ccccc3)cc2)C[C@@H](CCc2ccc(Cl)cc2Cl)O1 (relative stereo) [Example 2] — 1.6-fold higher, 33.6 µM
- COc1ccc([C@@H]2CC(=O)O[C@@H](CCc3ccc(Cl)cc3Cl)C2)cc1 (relative stereo) [Example 4] — 2.1-fold higher, 43.5 µM
- O=C1C[C@@H](c2ccc(O)cc2)C[C@H](CCc2ccc(Cl)cc2Cl)O1 (relative stereo) [Example 5] — within 1.5-fold, 20.8 µM
- O=C1C[C@@H](c2ccccc2CO)C[C@H](CCc2ccc(Cl)cc2Cl)O1 (relative stereo) [Example 8] — 2-fold higher, 42 µM
